What was measured:
Plasmodium berghei [1] = test: Antiplasmodial activity against liver stage Plasmodium berghei infected in Huh7 cells assessed as inhibition of parasite infection incubated for 1 hr prior to infection measured at 24 hrs by luciferase reporter gene assay; assay type: functional, organism-based; conditions: Huh-7, Liver
Plasmodium berghei [2] = test: Potency index, ratio of bulaquine IC50 to compound IC50 for liver stage Plasmodium berghei infected in Huh7 cells; assay type: functional, Huh-7
Plasmodium falciparum [3] = test: Antiplasmodial activity against chloroquine-resistant Plasmodium falciparum W2 infected in human erythrocytes after 48 hrs by flow cytometry; assay type: functional, organism-based; conditions: W2, 48 h
[4] = Cytotoxicity against HEK293T cells assessed as cell viability after 48 hrs by MTT assay; assay type: cell-based; conditions: Homo sapiens, HEK-293T
[5] = Cytotoxicity against human HuH7 cells infected with Plasmodium berghei assessed as cell proliferation at 1 to 10 uM by Alamar blue assay; assay type: cell-based; conditions: huh-7, 10 µM
Plasmodium falciparum [6] = test: Antiplasmodial activity against chloroquine-resistant Plasmodium falciparum W2 infected in human erythrocytes after 24 hrs by [3H]-hypoxanthine incorporation assay; assay type: functional, organism-based

Row | SMILES | IC50 (Plasmodium berghei [1]) [nM] | Ratio IC50 (Plasmodium berghei [2]) | IC50 (Plasmodium falciparum [3]) [µM] | IC50 [4] [µM] | Activity [5] | IC50 (Plasmodium falciparum [6]) [nM]
1 | CCCCOc1c(NCCCC(C)Nc2cc(OC)cc3cccnc23)c(=O)c1=O (configuration not stated) | 1300 | 4.3 | – | – | – | –
2 | COc1cc(NC(C)CCCNc2c(NCCCC(C)Nc3cc(OC)cc4cccnc34)c(=O)c2=O)c2ncccc2c1 (configuration not stated) | 1300 | 4.3 | – | – | – | –
3 | CCCCOc1c(NCCNc2cc(OC)cc3cccnc23)c(=O)c1=O | – | – | 8.5 | > 100 | Non-toxic | –
4 | CCCCOc1c(Nc2cc(OC)cc3cccnc23)c(=O)c1=O | – | – | > 10 | – | Non-toxic | –
5 | COc1cc(NC(C)CCCN/C(C)=C2/CCOC2=O)c2ncccc2c1 (configuration not stated) | 10000 | – | – | – | – | 1600
6 | CCCCNc1c(NCCCC(C)Nc2cc(OC)cc3cccnc23)c(=O)c1=O (configuration not stated) | – | – | > 10 | – | Non-toxic | –
7 | CCCCOc1c(NCCC(C)Nc2cc(OC)cc3cccnc23)c(=O)c1=O (configuration not stated) | – | – | 5.1 | > 100 | Non-toxic | –
8 | CCCCOc1c(NCCCCCNc2cc(OC)cc3cccnc23)c(=O)c1=O | 2200 | 4.3 | > 10 | > 100 | Non-toxic | –
9 | CCCCOc1c(NCCCNc2cc(OC)cc3cccnc23)c(=O)c1=O | 1800 | 4.3 | 5.1 | > 100 | Non-toxic | –
10 | CCOc1c(NCCCC(C)Nc2cc(OC)cc3cccnc23)c(=O)c1=O (configuration not stated) | – | – | 7.3 | > 100 | Non-toxic | –
11 | COc1cc(NC(C)CCCNc2c(OC)c(=O)c2=O)c2ncccc2c1 (configuration not stated) | – | – | > 10 | – | Non-toxic | –
12 | COc1cc(NC(C)CCCN)c2ncccc2c1 (configuration not stated) [PRIMAQUINE] | 9500 | – | – | – | – | –

From ChEMBL document CHEMBL3769361, “Novel squaramides with in vitro liver stage antiplasmodial activity” (Bioorg Med Chem, 2016)
